# Earlier results in patent US6093730A, “Substituted isoquinoline-3-carboxamides, their preparation and their use as pharmaceuticals” (Hoechst Marion Roussel Deutschland GmbH, priority 1997, dated 2000).
# What was measured:
# [1] = test system: liver; conditions: rats; Franklin 1997; cited from earlier work
# [2] = test system: collagen biosynthesis; conditions: Franklin et al.; cited from earlier work
compound,measurement,setting,value
O=C(O)CNC(=O)c1ncc2cc(Br)ccc2c1O [N-((7-bromo-4-hydroxy-isoquinolin-3-yl)carbonyl)glycine],toxic action on the liver,[1],toxic action on the liver (steatosis)
same,in-vivo activity on collagen biosynthesis,[2],in-vivo inhibition of collagen biosynthesis
